The source made the active and inactive calls. No cut-off for these calls is given here.
Key:
[1] = biological target: T1, von Hippel-Lindau disease tumor suppressor/Histone deacetylase 8 (Homo sapiens) (UniProt Q9BY41+P40337); test: Protac activity at VHL/HDAC8 in human A549 cells assessed as degradation of HDAC8 at 200 nM measured after 20 hrs by Western blot analysis relative to control; type: cell-based
[2] = biological target: T1, von Hippel-Lindau disease tumor suppressor/Histone deacetylase 8 (Homo sapiens); test: Protac activity at VHL/HDAC8 in human A549 cells assessed as degradation of HDAC8 at 2 uM measured after 20 hrs by Western blot analysis relative to control; type: cell-based
[3] = biological target: T2, Protein cereblon/Histone deacetylase 8 (Homo sapiens) (UniProt Q9BY41+Q96SW2); test: Protac activity at CRBN/HDAC8 in human A549 cells assessed as degradation of HDAC8 at 2 uM measured after 20 hrs by Western blot analysis relative to control; type: cell-based
[4] = biological target: T2, Protein cereblon/Histone deacetylase 8 (Homo sapiens); test: Protac activity at CRBN/HDAC8 in human A549 cells assessed as degradation of HDAC8 at 200 nM measured after 20 hrs by Western blot analysis relative to control; type: cell-based
[5] = biological target: von Hippel-Lindau disease tumor suppressor/Histone deacetylase 2 (Homo sapiens) (UniProt Q92769+P40337); test: Protac activity at VHL/HDAC2 in human A549 cells assessed as degradation of HDAC2 at 0.1 to 10 uM by Western blot analysis; type: cell-based; details: dose 0.1-10 µM
[6] = biological target: T1, von Hippel-Lindau disease tumor suppressor/Histone deacetylase 8 (Homo sapiens); test: Protac activity at VHL/HDAC8 in human A549 cells assessed as degradation of HDAC8 by Western blot analysis; type: cell-based; details: dose 0.1-10 µM
[7] = biological target: von Hippel-Lindau disease tumor suppressor/Histone deacetylase 1 (Homo sapiens) (UniProt Q13547+P40337); test: Protac activity at VHL/HDAC1 in human A549 cells assessed as degradation of HDAC1 at 0.1 to 10 uM by Western blot analysis; type: cell-based; details: dose 0.1-10 µM
[8] = biological target: von Hippel-Lindau disease tumor suppressor/Histone deacetylase 3 (Homo sapiens) (UniProt O15379+P40337); test: Protac activity at VHL/HDAC3 in human A549 cells assessed as degradation of HDAC3 at 0.1 to 10 uM by Western blot analysis; type: cell-based; details: dose 0.1-10 µM
A549 = test: Inhibition of colony formation in human A549 cells assessed as reduction in cell proliferation at 2.5 to 10 uM measured after 7 to 10 days with media replenishment along with compound for every 3 days by crystal violet staining based analysis; type: functional; details: dose 2.5-10 µM, time 7-10 day
HCT-116 = test: Inhibition of colony formation in human HCT-116 cells assessed as reduction in cell proliferation at 2.5 to 10 uM measured after 7 to 10 days with media replenishment along with compound for every 3 days by crystal violet staining based analysis; type: functional; details: dose 2.5-10 µM, time 7-10 day

T1 sequence (P40337 whole entry, looked up): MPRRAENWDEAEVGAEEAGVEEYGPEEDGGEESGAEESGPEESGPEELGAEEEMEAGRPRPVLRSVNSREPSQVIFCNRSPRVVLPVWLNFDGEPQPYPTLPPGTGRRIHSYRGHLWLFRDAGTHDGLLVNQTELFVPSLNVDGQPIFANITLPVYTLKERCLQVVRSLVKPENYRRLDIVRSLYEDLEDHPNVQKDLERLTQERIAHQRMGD
T1 sequence (Q9BY41 whole entry, looked up): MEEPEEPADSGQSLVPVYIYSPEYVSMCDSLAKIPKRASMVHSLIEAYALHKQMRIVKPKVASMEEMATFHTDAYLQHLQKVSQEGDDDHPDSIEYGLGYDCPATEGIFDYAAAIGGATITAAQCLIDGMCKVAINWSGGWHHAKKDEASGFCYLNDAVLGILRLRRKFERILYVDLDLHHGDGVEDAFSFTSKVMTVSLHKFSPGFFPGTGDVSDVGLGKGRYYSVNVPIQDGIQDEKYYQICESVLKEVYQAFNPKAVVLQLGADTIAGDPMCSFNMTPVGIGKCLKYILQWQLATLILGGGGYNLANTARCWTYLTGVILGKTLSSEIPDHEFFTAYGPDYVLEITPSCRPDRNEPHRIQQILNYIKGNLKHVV
T2 sequence (Q96SW2 whole entry, looked up): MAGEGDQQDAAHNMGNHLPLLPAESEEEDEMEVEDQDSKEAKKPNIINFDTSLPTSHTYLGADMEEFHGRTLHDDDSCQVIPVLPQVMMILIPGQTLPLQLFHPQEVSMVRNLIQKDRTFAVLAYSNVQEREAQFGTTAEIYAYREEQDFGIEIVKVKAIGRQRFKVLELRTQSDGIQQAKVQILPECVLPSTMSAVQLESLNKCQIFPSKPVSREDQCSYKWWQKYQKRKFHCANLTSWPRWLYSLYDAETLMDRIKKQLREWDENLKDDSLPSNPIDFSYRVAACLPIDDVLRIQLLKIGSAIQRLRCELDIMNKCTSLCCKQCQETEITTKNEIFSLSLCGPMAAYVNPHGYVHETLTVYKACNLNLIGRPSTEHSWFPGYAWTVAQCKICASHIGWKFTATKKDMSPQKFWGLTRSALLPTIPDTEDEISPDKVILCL
T2 sequence (Q9BY41 whole entry, looked up): as the sequence (Q9BY41 whole entry, looked up) above
von Hippel-Lindau disease tumor suppressor/Histone deacetylase 3 (Homo sapiens), sequence (O15379 whole entry, looked up): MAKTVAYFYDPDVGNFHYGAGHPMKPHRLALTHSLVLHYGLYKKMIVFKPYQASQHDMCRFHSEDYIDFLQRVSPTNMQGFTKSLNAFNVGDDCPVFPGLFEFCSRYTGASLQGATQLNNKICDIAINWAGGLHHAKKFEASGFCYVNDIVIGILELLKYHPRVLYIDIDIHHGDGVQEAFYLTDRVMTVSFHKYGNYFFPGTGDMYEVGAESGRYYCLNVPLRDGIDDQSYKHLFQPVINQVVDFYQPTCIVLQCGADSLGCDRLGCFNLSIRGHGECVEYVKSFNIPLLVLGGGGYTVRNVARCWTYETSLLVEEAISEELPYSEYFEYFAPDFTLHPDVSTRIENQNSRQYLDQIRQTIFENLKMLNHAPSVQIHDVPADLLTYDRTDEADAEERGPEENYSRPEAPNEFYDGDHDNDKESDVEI
von Hippel-Lindau disease tumor suppressor/Histone deacetylase 3 (Homo sapiens), sequence (P40337 whole entry, looked up): as the sequence (P40337 whole entry, looked up) above
von Hippel-Lindau disease tumor suppressor/Histone deacetylase 1 (Homo sapiens), sequence (P40337 whole entry, looked up): as above
von Hippel-Lindau disease tumor suppressor/Histone deacetylase 1 (Homo sapiens), sequence (Q13547 whole entry, looked up): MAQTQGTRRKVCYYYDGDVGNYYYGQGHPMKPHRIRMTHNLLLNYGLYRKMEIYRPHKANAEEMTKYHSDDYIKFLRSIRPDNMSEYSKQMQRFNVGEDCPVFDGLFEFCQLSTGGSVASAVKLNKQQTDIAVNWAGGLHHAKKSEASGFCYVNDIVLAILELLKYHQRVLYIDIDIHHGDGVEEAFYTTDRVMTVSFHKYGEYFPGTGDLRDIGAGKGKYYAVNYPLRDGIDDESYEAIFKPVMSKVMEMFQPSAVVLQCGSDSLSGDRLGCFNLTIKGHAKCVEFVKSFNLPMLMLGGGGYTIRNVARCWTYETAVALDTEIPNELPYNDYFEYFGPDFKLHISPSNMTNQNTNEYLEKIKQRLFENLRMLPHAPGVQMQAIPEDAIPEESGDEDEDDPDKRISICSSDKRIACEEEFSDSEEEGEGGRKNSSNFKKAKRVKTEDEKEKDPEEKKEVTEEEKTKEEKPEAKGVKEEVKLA
von Hippel-Lindau disease tumor suppressor/Histone deacetylase 2 (Homo sapiens), sequence (P40337 whole entry, looked up): as the sequence (P40337 whole entry, looked up) above
von Hippel-Lindau disease tumor suppressor/Histone deacetylase 2 (Homo sapiens), sequence (Q92769 whole entry, looked up): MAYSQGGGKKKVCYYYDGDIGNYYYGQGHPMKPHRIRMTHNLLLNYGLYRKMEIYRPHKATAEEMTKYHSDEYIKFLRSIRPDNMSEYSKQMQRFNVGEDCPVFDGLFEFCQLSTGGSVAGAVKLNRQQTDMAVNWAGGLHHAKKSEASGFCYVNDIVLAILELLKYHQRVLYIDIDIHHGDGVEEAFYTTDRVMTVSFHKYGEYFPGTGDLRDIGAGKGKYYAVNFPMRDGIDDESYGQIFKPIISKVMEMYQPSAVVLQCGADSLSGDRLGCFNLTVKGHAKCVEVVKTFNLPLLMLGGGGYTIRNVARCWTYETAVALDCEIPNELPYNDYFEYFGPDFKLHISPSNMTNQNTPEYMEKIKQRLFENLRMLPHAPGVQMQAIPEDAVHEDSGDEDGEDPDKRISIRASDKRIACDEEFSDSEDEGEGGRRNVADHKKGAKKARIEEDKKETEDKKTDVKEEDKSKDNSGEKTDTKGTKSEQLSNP

For Cc1ncsc1-c1ccc([C@H](C)NC(=O)[C@@H]2C[C@@H](O)CN2C(=O)[C@@H](NC(=O)COCCOCCOCCOc2ccc(Cn3ccc4ccc(C(=O)NO)cc43)cc2)C(C)(C)C)cc1, the Activity [1] was 26.7% and the Activity [2] was 50.2%.

With Cc1ncsc1-c1ccc([C@H](C)NC(=O)[C@@H]2C[C@@H](O)CN2C(=O)[C@@H](NC(=O)CCCCCOc2ccc(Cn3ccc4ccc(C(=O)NO)cc43)cc2)C(C)(C)C)cc1 the Activity [1] was 27.3% and the Activity [2] was 51.4%.

Work on Cc1ncsc1-c1ccc([C@H](C)NC(=O)[C@@H]2C[C@@H](O)CN2C(=O)[C@@H](NC(=O)CCCCOc2ccc(Cn3ccc4ccc(C(=O)NO)cc43)cc2)C(C)(C)C)cc1 yielded an Activity [1] of 34.6% and an Activity [2] of 75.7%.

For O=C1CCC(N2C(=O)c3cccc(NCCc4cn(CCCCCOc5ccc(Cn6ccc7ccc(C(=O)NO)cc76)cc5)nn4)c3C2=O)C(=O)N1 (stereo unspecified), the Activity [3] was 78.4% and the Activity [4] was 28%.

For Cc1ncsc1-c1ccc([C@H](C)NC(=O)[C@@H]2C[C@@H](O)CN2C(=O)[C@@H](NC(=O)CCCCCCOc2ccc(Cn3ccc4ccc(C(=O)NO)cc43)cc2)C(C)(C)C)cc1, the Activity [1] was 29.8% and the Activity [2] was 73.6%.

For O=C1CCC(N2C(=O)c3cccc(NCc4cn(CCOCCOCCOCCOCCOc5ccc(Cn6ccc7ccc(C(=O)NO)cc76)cc5)nn4)c3C2=O)C(=O)N1 (stereo unspecified), the Activity [3] was 80.2% and the Activity [4] was 39.4%.

With Cc1ncsc1-c1ccc([C@H](C)NC(=O)[C@@H]2C[C@@H](O)CN2C(=O)[C@@H](NC(=O)COCCOc2ccc(Cn3ccc4ccc(C(=O)NO)cc43)cc2)C(C)(C)C)cc1 the Activity [5] was “inactive”, the Activity [1] was 45.7% and the Activity [6] was “Active”. For the same molecule, the Activity [7] was “inactive”, the Activity [8] was “inactive” and the inhibition (A549) was “Active”. For the same molecule, the Activity [2] was 91.3% and the inhibition (HCT-116) was “Active”.

For O=C1CCC(N2C(=O)c3cccc(NCc4cn(CCCOc5ccc(Cn6ccc7ccc(C(=O)NO)cc76)cc5)nn4)c3C2=O)C(=O)N1 (stereo unspecified), the Activity [3] was 69.4% and the Activity [4] was 25.6%.

Work on Cc1ncsc1-c1ccc([C@H](C)NC(=O)[C@@H]2C[C@@H](O)CN2C(=O)[C@@H](NC(=O)COCCOCCOc2ccc(Cn3ccc4ccc(C(=O)NO)cc43)cc2)C(C)(C)C)cc1 yielded an Activity [1] of 31.3% and an Activity [2] of 75.3%.

O=C1CCC(N2C(=O)c3cccc(NCc4cn(CCOCCOCCOc5ccc(Cn6ccc7ccc(C(=O)NO)cc76)cc5)nn4)c3C2=O)C(=O)N1 (stereo unspecified) showed an Activity [3] of 70.8% and an Activity [4] of 42.5%.
